Assay results reported in PMC9144480 (Pharmaceuticals, 2022).
Like-named read-outs stand apart in the source and are kept apart here.

Legend:
[1] = tested on: pseudovirus bearing SARS-CoV-2 S protein, delta (B.1.617.2) variant; assay: microbe, parasite or virus in culture; assay type: cell-based; conditions: HEK-293T, read-out: IC50, inhibition of cell entry of pseudovirus (delta var.)
[2] = tested on: SARS-CoV-2 spike protein pseudotyped VSV-ΔG; assay: microbe, parasite or virus in culture; assay type: cell-based
[3] = Severe acute respiratory syndrome coronavirus 2, Vero C1008, read-out: IC50, inhibition of VSV-ΔG pseudovirus entry

Structure (SMILES) | IC50 [1] [µM] | IC50 [2, 3] [µM] | IC50 ([2]; read-out: IC50, inhibition of VSV-ΔG pseudovirus entry) [µM]
CCN(CCO)CCCC(C)Nc1ccnc2cc(Cl)ccc12 (stereo not shown) [HCQ, hydroxychloroquine] | 75.1 |  | 
Nc1c(/N=N/c2ccc([N+](=O)[O-])cc2)c(S(=O)(=O)O)cc2cc(S(=O)(=O)O)c(/N=N/c3ccccc3)c(O)c12 [NBlBk, naphthol blue black] | 388 |  | 
O=S(=O)(O)c1ccc(N=Nc2c(O)ccc3cc(S(=O)(=O)O)ccc23)cc1 [SY(FD&C#6), sunset yellow FCF] | > 500 | > 250 | 
CN(C)c1ccc2nc3ccc(=[N+](C)C)cc-3sc2c1 [MeBlu, methylene blue] | 4.7 | 2.5 | 2.46
